The test system of data set [1] is Collinsella aerofaciens xylulose-5-phosphate/fructose-6-phosphate phosphoketolase (D3), wild type, SEQ ID NO: 2. As to the kind of experiment: Kinetics, Hydroxymate based colorimetric assay for FPK activity (F6P). It is filed as biochemical. From the text: Mutagenesis techniques were used to generate engineered phosphoketolases based on one of two template phosphoketolases (the fructose-6-phosphate phosphoketolase from Bifidobacterium adolescentis (strain ATCC 15703 DSM 20083 NCTC 11814 E194a) (“H2”; UniProtKB Accession No. A1A185_BIFAA; SEQ ID NOs: 1 and 3) orthe xylulose-5-phosphate/fructose-6-phosphate phosphoketolase from Collinsella aerofaciens (“D3”; UniProt KB Accession No. A0A174LGR4_9ACTN; SEQ ID NOs: 2 and 4)). Engineered phosphoketolase were generated using rational protein engineering. Structural homology models were constructed for H2 and D3. The substrate docking with Xu5P and F6P were also performed. In total, 2000 variants were designed. […]
(§1) Further biochemical characterization of selected variants was conducted and the FPK activity of these variants were assessed. […] The kinetics parameters measured during biochemical characterization are summarized below in Table 5. […]
The product of FPK is coupled to ferric-hydroxamate complex production via hydroxamate reactions of its product with hydroxylamine and ferric chloride. Ferric-hydroxamate complex production was measured by absorbance at 520 nm. […]
Cell lysate preparation was the same described as above. […] The reaction was incubated at room temperature for 10 minutes and then sent to the plate reader for absorption at 520 nm.

For data set [2], the target named is T1, Bifidobacterium adolescentis fructose-6-phosphate phosphoketolase (H2), wild type, SEQ ID NO: 1 (Bifidobacterium adolescentis, UniProt A1A185).
T1 sequence (A1A185 with tags, fused parts or gaps): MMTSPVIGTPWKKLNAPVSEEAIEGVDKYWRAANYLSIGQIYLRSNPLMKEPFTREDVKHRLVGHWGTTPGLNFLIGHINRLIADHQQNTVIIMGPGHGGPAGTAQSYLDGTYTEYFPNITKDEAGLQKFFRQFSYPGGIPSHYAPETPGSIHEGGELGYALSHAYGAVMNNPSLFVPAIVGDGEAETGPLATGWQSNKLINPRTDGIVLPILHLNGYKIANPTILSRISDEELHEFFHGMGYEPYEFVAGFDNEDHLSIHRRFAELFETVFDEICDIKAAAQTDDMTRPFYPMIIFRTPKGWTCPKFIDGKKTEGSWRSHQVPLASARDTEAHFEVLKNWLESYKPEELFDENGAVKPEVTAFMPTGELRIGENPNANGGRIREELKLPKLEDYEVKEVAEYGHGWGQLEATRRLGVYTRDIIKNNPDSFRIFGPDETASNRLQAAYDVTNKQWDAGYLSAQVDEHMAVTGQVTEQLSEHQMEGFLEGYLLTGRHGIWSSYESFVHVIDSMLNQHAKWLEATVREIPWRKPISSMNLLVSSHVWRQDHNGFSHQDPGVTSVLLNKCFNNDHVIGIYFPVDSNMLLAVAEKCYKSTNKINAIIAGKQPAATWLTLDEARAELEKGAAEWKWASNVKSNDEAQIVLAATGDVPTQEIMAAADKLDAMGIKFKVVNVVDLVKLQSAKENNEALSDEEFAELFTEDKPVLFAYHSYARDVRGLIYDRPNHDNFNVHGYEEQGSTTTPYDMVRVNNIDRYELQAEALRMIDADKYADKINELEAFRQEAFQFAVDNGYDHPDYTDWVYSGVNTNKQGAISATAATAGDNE
The data set can be described thus: Kinetics, E4PDH based colorimetric assay for FPK activity (F6P). The class given is biochemical.

In data set [3] the target is T1, Bifidobacterium adolescentis fructose-6-phosphate phosphoketolase (H2), wild type, SEQ ID NO: 1. As to the kind of experiment: Kinetics, Hydroxymate based colorimetric assay for FPK activity (F6P). It is filed as biochemical.
For data set [4], the system named is Collinsella aerofaciens xylulose-5-phosphate/fructose-6-phosphate phosphoketolase (D3), wild type, SEQ ID NO: 2. As to the kind of experiment: Kinetics, E4PDH based colorimetric assay for FPK activity (F6P). It is filed as biochemical.
Source text: Mutagenesis techniques were used to generate engineered phosphoketolases based on one of two template phosphoketolases (the fructose-6-phosphate phosphoketolase from Bifidobacterium adolescentis (strain ATCC 15703 DSM 20083 NCTC 11814 E194a) (“H2”; UniProtKB Accession No. A1A185_BIFAA; SEQ ID NOs: 1 and 3) orthe xylulose-5-phosphate/fructose-6-phosphate phosphoketolase from Collinsella aerofaciens (“D3”; UniProt KB Accession No. A0A174LGR4_9ACTN; SEQ ID NOs: 2 and 4)). Engineered phosphoketolase were generated using rational protein engineering. Structural homology models were constructed for H2 and D3. The substrate docking with Xu5P and F6P were also performed. In total, 2000 variants were designed. There are 1031 constructs designed based on H2, and 969 based on D3. 1999 constructs were received from DNA synthesis. […]
as §1
The product of FPK is coupled to NADH production via a one-step enzymatic reaction of its product with E4PDH. NADH production overtime was measured by absorbance at 340 nm. […]
5 μL of half diluted cell lysate was added into 45 μL of reaction buffer. […] The reaction was recorded for a 10-min kinetics reading at 340 nm at room temperature.

Substrate in data set [5]: O=P(O)(O)OC[C@H]1OC(O)(CO)[C@@H](O)[C@@H]1O
The data set is described as above. It is filed as biochemical, Bifidobacterium adolescentis. The note with it: other: F6P. The text has this: Mutagenesis techniques were used to generate engineered phosphoketolases based on one of two template phosphoketolases (the fructose-6-phosphate phosphoketolase from Bifidobacterium adolescentis (strain ATCC 15703 DSM 20083 NCTC 11814 E194a) (“H2”; UniProtKB Accession No. A1A185_BIFAA; SEQ ID NOs: 1 and 3) orthe xylulose-5-phosphate/fructose-6-phosphate phosphoketolase from Collinsella aerofaciens (“D3”; UniProt KB Accession No. A0A174LGR4_9ACTN; SEQ ID NOs: 2 and 4)). Engineered phosphoketolase were generated using rational protein engineering. Structural homology models were constructed for H2 and D3. The substrate docking with Xu5P and F6P were also performed. In total, 2000 variants were designed. There are 1031 constructs designed based on H2, and 969 based on D3. 1999 constructs were received from DNA synthesis. The variants were then tested for XPK and/or FPK activity in in vitro primary and secondary screens as described below.
Further biochemical characterization of selected variants was conducted and the FPK activity of these variants were assessed. 12 hits were selected from the secondary screening results of the phosphoketolase library screen for in vitro biochemical characterization. All 12 of the hits selected are variants based on SEQ ID NO: 1. The kinetics parameters measured during biochemical characterization are summarized below in Table 5. The FPK kinetics assay was based on the E4PDH based Colorimetric Assay described herein for the 12 hits and the two controls (SEQ ID NO: 1 and SEQ ID NO: 2).
The product of FPK is coupled to NADH production via a one-step enzymatic reaction of its product with E4PDH. NADH production overtime was measured by absorbance at 340 nm. The reactions are listed below.
5 μL of half diluted cell lysate was added into 45 μL of reaction buffer. The reaction buffer contained an approximate amount of E4PDH enzyme, 1 mM NADH and 5 mM F6P as substrate for primary screening. 2 mM F6P was used for secondary screening. The reaction was recorded for a 10-min kinetics reading at 340 nm at room temperature.

Residue numbers refer to the chain shown, from its start. Names and notes keep the numbering of the source.

The source of these data is patent publication US20240218346A1, “PHOSPHOKETOLASE VARIANTS AND METHODS OF USE” (Genomatica, Inc., priority 2021, published 2024).

The Km is the concentration of substrate that gives half-maximal velocity. As a reminder, the kcat is the number of substrate molecules converted per active site and unit of time at saturation. With `O=P(O)(O)OC[C@H]1OC(O)(CO)[C@@H](O)[C@@H]1O` (stereo partly drawn) [F6P, D-fructose-6-phosphate], the Km was determined as 9.31 mM in data set [1], 4.89 mM in data set [2], 1.04 mM in data set [3] and 27.9 mM in data set [4]. The kcat amounted to 19.57 s⁻¹ in data set [1], 30.07 s⁻¹ in data set [2], 5.933 s⁻¹ in data set [3] and 7.824 s⁻¹ in data set [4].

B1: Bifidobacterium adolescentis fructose-6-phosphate phosphoketolase (H2, SEQ ID NO: 1) variant S504A (Bifidobacterium adolescentis ATCC 15703; S503A) (protein)
chain: T1 sequence (A1A185 with tags, fused parts or gaps) with S504A
One may read the kcat/Km as the turnover number divided by the Michaelis constant. In the case of B1, in data set [5], the Km turned out to be 3.347 mM, the kcat was determined as 26.3 s⁻¹ and the kcat/Km stood at 7850 M⁻¹ s⁻¹.

B2: Bifidobacterium adolescentis fructose-6-phosphate phosphoketolase (H2, SEQ ID NO: 1) variant Y799I (Bifidobacterium adolescentis ATCC 15703; Y798I) (protein)
chain: T1 sequence (A1A185 with tags, fused parts or gaps) with Y799I
As to B2, in data set [5], the Km came out at 4.53 mM, the kcat amounted to 33.6 s⁻¹ and the kcat/Km is 7430 M⁻¹ s⁻¹.
